According to US10548858B2, “Inhibition of sphingosine 1-phosphate receptor for treatment and prevention of lymphedema” (Memorial Sloan Kettering Cancer Center, priority 2016, dated 2020):
Entries after “also recorded” stand apart in the source; their conditions may differ.

Experiments:
[1] = tested on: CD4+ cells; test: CD4+ cell flow cytometry of lymph nodes and hind limb skin after PLND and adoptive transfer, with or without FTY720; assay type: in vivo, mouse; details: CD4KO mice, PLND, 24 hours after adoptive transfer of CD4+ cells
Protocol: Metzler et al., Int. Immunol. 20:633 (2008); Kharel et al., J. Biol. Chem. 280:36865 (2005). Control animals were treated with vehicle alone.
To induce lymphedema, we used a mouse tail model in which a 5 vmm portion of the mid-tail is excised and the deep lymphatic collecting vessels are ligated. Avraham et al., Am. J. Pathol. 177:3202 (2010); Clavin et al., Am. J. Physiol. Heart Circ. Physiol. 295:H2113 (2008); Rutkowski et al., Microvasc. Res. 72:161 (2006); Tabibiazar et al., PloS Med 3:e254 (2006). This model reliably results in sustained tail swelling, severe impairment in lymphatic function, and histopathologic features consistent with clinical lymphedema, lasting as long as 10 weeks after surgery. Avraham et al., Am. J. Pathol. 177:3202 (2010); Clavin et al., Am. J. Physiol. Heart Circ. Physiol. 295:H2113 (2008); Rutkowski et al., Microvasc. Res. 72:161 (2006); Tabibiazar et al., PloS Med 3:e254 (2006). […]
Culture expanded naïve CD4^+ cells (1×10^7) were suspended in 100 μL of sterile phosphate buffered saline (PBS) and adoptively transferred to CD4KO mice by weekly retro-orbital sinus injections beginning two weeks after surgery for 2 or 4 weeks (for PLND or lymphatic tail ablation, respectively), followed by sacrifice. […] Delivery of CD4^+ cells was confirmed using flow cytometry to quantify CD4^+ cells in single cell suspensions created from spleens and aortic lymph nodes. […]

[2] = tested on: lymphedema (mouse tail lymphatic ablation); test: Mouse tail skin/lymphatic ablation model of lymphedema, 6 weeks of treatment; assay type: in vivo; details: wild-type mice, 6 weeks after lymphatic ablation
From the text: To determine if FTY720 treatment can be useful for treating lymphedema, we next performed tail skin/lymphatic ablations on wild-type mice and treated experimental animals with FTY720 and control animals with vehicle only for 6 weeks.
To induce lymphedema, we used a mouse tail model in which a 5 vmm portion of the mid-tail is excised and the deep lymphatic collecting vessels are ligated. Avraham et al., Am. J. Pathol. 177:3202 (2010); Clavin et al., Am. J. Physiol. Heart Circ. Physiol. 295:H2113 (2008); Rutkowski et al., Microvasc. Res. 72:161 (2006); Tabibiazar et al., PloS Med 3:e254 (2006). This model reliably results in sustained tail swelling, severe impairment in lymphatic function, and histopathologic features consistent with clinical lymphedema, lasting as long as 10 weeks after surgery. Avraham et al., Am. J. Pathol. 177:3202 (2010); Clavin et al., Am. J. Physiol. Heart Circ. Physiol. 295:H2113 (2008); Rutkowski et al., Microvasc. Res. 72:161 (2006); Tabibiazar et al., PloS Med 3:e254 (2006). In other experiments, animals were randomized to either PLND or sham surgery. PLND was performed as previously reported, removing the nodes, surrounding fat pad, and afferent/efferent lymphatics. Control animals underwent sham popliteal surgeries where a skin incision was made in the area of the popliteal lymph node without nodal resection. Although sustained lymphedema is not observed here, it has previously been described as a means of analyzing regeneration of collateral lymphatics and collecting lymphatic pumping capacity. Proulx et al., Biomaterials 34:5128 (2013); Sharma et al., Am. J. Physiol. Heart and Circul. Physiol. 292:H3109 (2007).
In other experiments, WT mice underwent tail or popliteal lymphatic ablation surgeries and were subsequently randomized to treatment with FTY720 (Sigma Aldrich, St. Louis, Mo.), an […] modulator that blocks lymphocyte egress from lymph nodes. Metzler et al., Int. Immunol. 20:633 (2008); Kharel et al., J. Biol. Chem. 280:36865 (2005). Briefly, FTY720 was dissolved in water as per the manufacturer's recommendations, and supplied ad libitum starting the day of lymphatic ablation. Mice received an estimated 1.25 mg/kg/day for 2 or 6 weeks (for PLND or tail surgeries, respectively) until tissues were harvested. […]
Tail volumes were calculated weekly using the truncated cone formula. […]
Subcutaneous adipose tissue thickness measurements were analyzed by 2 blinded reviewers (n=5-6 animals/group) using standardized cross-sections by measuring from the width of tissues bounded by the reticular dermis to the deep fascia in 4 standardized regions per section. Capillary lymphatic vessel area was quantified as previously described using Panoramic viewer software (3DHistech, Budapest, Hungary) in four 40× high-power fields/animal per group. […]

[3] = tested on: lymphedema; details: cited from earlier work
[4] = FTY720 estimated 1.25 mg/kg/day in water, vs vehicle

| SMILES | CD4+ cells in the hind limb skin ([1]; vs vehicle treated PLND mice) | accumulation of CD4+ cells in the inguinal lymph node ([1]; vs vehicle, FTY720 in drinking water, estimated 1.25 mg/kg/day) | tail fibrosis (gross analysis) [2, 4] | tail swelling (gross analysis) [2, 4] | fibroadipose tissue deposition (thickness) ([2]; cross-sectional histology, vs vehicle control) | tail volumes (percentage change) ([2]; vs vehicle control) | clinical success in patients with lymphedema [3] | toxicity ([3]; patients with lymphedema) |
| --- | --- | --- | --- | --- | --- | --- | --- | --- |
| CCCCCCCCc1ccc(CCC(N)(CO)CO)cc1 [FTY720, 2-amino-2-[2-(4-octylphenyl)ethyl]propane-1,3-diol] | decreased the number of these cells in hind limb skin; also recorded: marked decrease | prevented release of CD4+ cells from the lymph node; also recorded: increased significantly | lack of swelling and fibrosis; also recorded: markedly decreased | lack of swelling; also recorded: markedly decreased | decreased fibroadipose tissue deposition; also recorded: significant decreases | lack of swelling; also recorded: significant decreases | – | – |
| O=c1ccc2ccccc2o1 [Coumarin] | – | – | – | – | – | – | modest success | significant toxicity including liver failure and death |
